According to patent US20230159546A1, “NOVEL SPIROPYRROLIDINE DERIVED ANTIVIRAL AGENTS” (Enanta Pharmaceuticals, Inc., priority 2021, published 2023):
Where two headings read alike, the source gives them in different places.

Key:
[1] = target: SARS-CoV-2 3CL-protease (Severe acute respiratory syndrome coronavirus 2, UniProt P0DTD1); test: SARS-CoV-2 3C-like (3CL) protease fluorescence assay (FRET); type: biochemical; conditions: recombinant SARS-CoV-2 3CL-protease 10 nM, 30 min preincubation at RT, duplicate; read-out: FRET IC50
[2] = system: 229E human corona virus (hCoV); test: 229E live virus assay (CPE, ATPlite readout, MRC-5 cells); type: cell-based, hCoV-229E; conditions: Human coronavirus 229E, MRC5, 144 h, read-out: 229E EC50
[3] = MRC-5 cells, MOI 0.05, 6 days at 34° C., ATPlite, duplicate

Row | SMILES | IC50 [1] [nM] | EC50 [2, 3] [nM] | EC50 [2] [nM]
1 | N#C[C@@H]1C[C@@]2(CN1C(=O)[C@H](Cc1ccccc1)C(=O)Nc1cc(F)cc(F)c1)C(=O)Nc1ccccc12 [Example 26] | > 1000 | > 1000 | 
2 | N#C[C@@H]1C[C@@]2(CN1C(=O)C(F)(Cc1ccccc1)C(=O)Nc1ccccc1)C(=O)Nc1ccccc12 (stereo partly drawn) [Example 27] | > 1000 | > 1000 | 
3 | N#C[C@@H]1C[C@@]2(CN1C(=O)C(F)(Cc1ccccc1)C(=O)Nc1cc(F)cc(F)c1)C(=O)Nc1ccccc12 (stereo partly drawn) [Example 28] | > 1000 | > 1000 | 
4 | CC(=O)N1C[C@]2(C[C@H]1C#N)C(=O)Nc1ccccc12 [Example 29] | > 1000 | 100 to 1000 | 
5 | N#C[C@@H]1C[C@@]2(CN1C(=O)c1ccccc1)C(=O)Nc1ccccc12 [Example 30] | > 1000 | 100 to 1000 | 
6 | CC(C)CC(C(=O)N1C[C@]2(C[C@H]1C#N)C(=O)Nc1ccccc12)c1ccc(NC(=O)c2cc3c(F)cccc3[nH]2)cn1 (stereo partly drawn) [Example 31] | > 1000 | > 1000 | 
7 | Cc1ccc(S(=O)(=O)N2C[C@]3(C[C@H]2C#N)C(=O)Nc2ccccc23)cc1 [Example 32] | > 1000 |  | > 1000
8 | N#C[C@@H]1C[C@@]2(CN1S(=O)(=O)c1ncc(-c3ccc(F)cc3)s1)C(=O)Nc1ccccc12 [Example 33] | > 1000 | > 1000 | 
9 | Cc1nc(-c2ccc(S(=O)(=O)N3C[C@]4(C[C@H]3C#N)C(=O)Nc3ccccc34)s2)cs1 [Example 34] | > 1000 | > 1000 | 
10 | N#C[C@@H]1C[C@@]2(CN1S(=O)(=O)c1ccc(Oc3ccccc3)cc1)C(=O)Nc1ccccc12 [Example 35] | > 1000 | > 1000 | 
11 | N#C[C@@H]1C[C@@]2(CN1C(=O)c1ccc(-c3ccccc3)cc1)C(=O)Nc1ccccc12 [Example 36] | > 1000 | > 1000 | 
12 | N#C[C@@H]1C[C@@]2(CN1C(=O)c1cc3ccccc3nc1Cl)C(=O)Nc1ccccc12 [Example 37] | > 1000 | > 1000 | 
13 | N#C[C@@H]1C[C@@]2(CN1C(=O)NC1CCCCC1)C(=O)Nc1ccccc12 [Example 38] | > 1000 | < 100 | 
14 | N#C[C@@H]1C[C@@]2(CN1CC1CCCCC1)C(=O)Nc1ccccc12 [Example 39] | > 1000 | > 1000 | 
15 | CC(C)C(=O)N1C[C@]2(C[C@H]1C#N)C(=O)Nc1ccccc12 [Example 40] | > 1000 | > 1000 | 
16 | CC(C)(C)C(=O)N1C[C@]2(C[C@H]1C#N)C(=O)Nc1ccccc12 [Example 41] | > 1000 | > 1000 | 
17 | N#C[C@@H]1C[C@@]2(CN1C(=O)C1CC1)C(=O)Nc1ccccc12 [Example 42] | > 1000 | > 1000 | 
18 | N#C[C@@H]1C[C@@]2(CN1C(=O)C1CCCCC1)C(=O)Nc1ccccc12 [Example 43] | > 1000 | > 1000 | 
19 | N#C[C@@H]1C[C@@]2(CN1C(=O)c1ccc3cccnc3c1)C(=O)Nc1ccccc12 [Example 44] | > 1000 | > 1000 | 
20 | CCNC(=O)N1C[C@]2(C[C@H]1C#N)C(=O)Nc1ccccc12 [Example 46] | > 1000 | > 1000 | 
21 | CC(C)NC(=O)N1C[C@]2(C[C@H]1C#N)C(=O)Nc1ccccc12 [Example 47] | > 1000 | > 1000 | 
22 | N#C[C@@H]1C[C@@]2(CN1C(=O)NC1CC1)C(=O)Nc1ccccc12 [Example 48] | > 1000 |  | > 1000
23 | N#C[C@@H]1C[C@@]2(CN1C(=O)NC1CCCC1)C(=O)Nc1ccccc12 [Example 49] | > 1000 | 100 to 1000 | 
24 | N#C[C@@H]1C[C@@]2(CN1C(=O)Nc1ccccc1)C(=O)Nc1ccccc12 [Example 50] | > 1000 | > 1000 | 
25 | N#C[C@@H]1C[C@@]2(CN1C(=O)NCc1ccccc1)C(=O)Nc1ccccc12 [Example 51] | > 1000 | 100 to 1000 | 
26 | N#C[C@@H]1C[C@@]2(CN1C(=O)Nc1ccc3cccnc3c1)C(=O)Nc1ccccc12 [Example 52] | > 1000 | > 1000 | 
27 | N#C[C@@H]1C[C@@]2(CN1C(=O)NCc1nccs1)C(=O)Nc1ccccc12 [Example 53] | > 1000 | > 1000 | 
